Holding throughout (assay type): cell-based
In test [1] the test system is HTT mRNA. Description: Splicing assay (RT-qPCR) monitoring HTT canonical junction (CJ) and alternative junction (AJ) mRNA isoforms. The note with it: A673 or K562 cells, 24 h treatment, top dose 10 uM. On the procedure:
Compounds described herein were used to modulate RNA transcript abundance in cells. The expression of a target mRNA was measured by detecting the formation of an exon-exon junction in the canonical transcript (CJ). A compound mediated exon-inclusion event was detected by observing an increase in formation of a new junction with an alternative exon (AJ). Real-time qPCR assays were used to detect these splicing switches and interrogate the potency of various compounds towards different target genes. A high-throughput real time quantitative PCR (RT-qPCR) assay was developed to measure these two isoforms of the mRNA (CJ and AJ) for an exemplary gene, HTT, together with a control housekeeping gene, GAPDH or GUSB or PPIA, used for normalization. Briefly, the A673 or K562 cell line was treated with various compounds described herein (e.g., compounds of Formula (I)). After treatment, the levels of the HTT mRNA targets were determined from each sample of cell lysate by cDNA synthesis followed by qPCR.
• Cells-to-CT 1-step kit: ThermoFisher A25602, Cells-to-CT lysis reagent: ThermoFisher 4391851C, TaqMan™ Fast Virus 1-Step Master Mix: ThermoFisher 4444436 • GAPDH: VIC-PL, ThermoFisher 4326317E (Assay: Hs99999905_m1)—used for K562/suspension cell lines • GUSB: VIC-PL, ThermoFisher 4326320E (Assay: Hs99999908_m1)—used for K562/suspension cell lines • PPIA: VIC-PL, ThermoFisher 4326316E (Assay: Hs99999904_m1) — used for A673/adherent cell lines
The A673 cell line was cultured in DMEM with 10% FBS. Cells were diluted with full growth media and plated in a 96-well plate (15,000 cells in 100 ul media per well). The plate was incubated at 37° C. with 5% CO2 for 24 hours to allow cells to adhere. An 11-point 3-fold serial dilution of the compounds was made in DMSO then diluted in media in an intermediate plate. Compounds were transferred from the intermediate plate to the cell plate with the top dose at a final concentration of 10 uM in the well. Final DMSO concentration was kept at or below 0.25%. The cell plate was returned to the incubator at 37° C. with 5% CO2 for an additional 24 hours.
The K562 cell line was cultured in IMDM with 10% FBS. For K562, cells were diluted with full growth media and plated in either a 96-well plate (50,000 cells in 50 uL media per well) or a 384-well plate (8,000-40,000 cells in 45 uL media per well). An 11-point 3-fold serial dilution of the compounds were made in DMSO then diluted in media in an intermediate plate. Compound was transferred from the intermediate plate to the cell plate with the top dose at a final concentration of 10 uM in the well. Final DMSO concentration was kept at or below 0.25%. Final volume was 100 uL for 96-well plate and 50 uL for 384-well plate. The cell plate was then placed in an incubator at 37° C. with 5% CO2 for 24 hours.
The cells were then gently washed with 50 uL-100 uL cold PBS before proceeding to addition of lysis buffer. 30 uL-50 uL of room temperature lysis buffer with DNAse I (and optionally RNAsin) was added to each well. Cells were shaken/mixed thoroughly at room temperature for 5-10 minutes for lysis to take place and then 3 uL-5 uL of room temperature stop solution was added and wells were shaken/mixed again. After 2-5 minutes, the cell lysate plate was transferred to ice for RT-qPCR reaction setup. The lysates could also be frozen at −80° C. for later use.
In some cases, a direct lysis buffer was used. An appropriate volume of 3× lysis buffer (10 mM Tris, 150 mM NaCl, 1.5%-2.5% Igepal and 0.1-1 U/uL RNAsin, pH 7.4) was directly added to either K562 or A673 cells in media and mixed by pipetting 3 times. The plates were then incubated at room temperature with shaking/rocking for 20-50 minutes to allow for lysis to take place. After this time, the cell lysate plate was transferred to ice to set up for the RT-qPCR reactions. The lysates could also be frozen at −80° C. for later use. […]
On the technique in general: Real-time PCR tracks product formation cycle by cycle.

Test [2] deals with HTT CJ mRNA. Description: Gene panel canonical junction qPCR assay, HTT. The note with it: decrease in CJ mRNA levels, gene panel; read-out: HTT IC50. Here is the method: (§1) The expression of a target mRNA was measured by detecting the formation of an exon-exon junction in the canonical transcript (CJ). A compound mediated exon-inclusion event was detected by observing an increase in formation of a new junction with an alternative exon (AJ). Real-time qPCR assays were used to detect these splicing switches and interrogate the potency of various compounds towards different target genes. A high-throughput real time quantitative PCR (RT-qPCR) assay was developed to measure these two isoforms of the mRNA (CJ and AJ) for an exemplary gene, HTT, together with a control housekeeping gene, GAPDH or GUSB or PPIA, used for normalization. Briefly, the A673 or K562 cell line was treated with various compounds described herein (e.g., compounds of Formula (I)). After treatment, the levels of the HTT mRNA targets were determined from each sample of cell lysate by cDNA synthesis followed by qPCR. The A673 cell line was cultured in DMEM with 10% FBS. Cells were diluted with full growth media and plated in a 96-well plate (15,000 cells in 100 ul media per well). The plate was incubated at 37° C. with 5% CO2 for 24 hours to allow cells to adhere. An 11-point 3-fold serial dilution of the compounds was made in DMSO then diluted in media in an intermediate plate. Compounds were transferred from the intermediate plate to the cell plate with the top dose at a final concentration of 10 uM in the well. Final DMSO concentration was kept at or below 0.25%. The cell plate was returned to the incubator at 37° C. with 5% CO2 for an additional 24 hours. The K562 cell line was cultured in IMDM with 10% FBS. For K562, cells were diluted with full growth media and plated in either a 96-well plate (50,000 cells in 50 uL media per well) or a 384-well plate (8,000-40,000 cells in 45 uL media per well). An 11-point 3-fold serial dilution of the compounds were made in DMSO then diluted in media in an intermediate plate. Compound was transferred from the intermediate plate to the cell plate with the top dose at a final concentration of 10 uM in the well. Final DMSO concentration was kept at or below 0.25%. Final volume was 100 uL for 96-well plate and 50 uL for 384-well plate. The cell plate was then placed in an incubator at 37° C. with 5% CO2 for 24 hours. The cells were then gently washed with 50 uL-100 uL cold PBS before proceeding to addition of lysis buffer. 30 uL-50 uL of room temperature lysis buffer with DNAse I (and optionally RNAsin) was added to each well. Cells were shaken/mixed thoroughly at room temperature for 5-10 minutes for lysis to take place and then 3 uL-5 uL of room temperature stop solution was added and wells were shaken/mixed again. After 2-5 minutes, the cell lysate plate was transferred to ice for RT-qPCR reaction setup. The lysates could also be frozen at −80° C. for later use. In some cases, a direct lysis buffer was used. An appropriate volume of 3× lysis buffer (10 mM Tris, 150 mM NaCl, 1.5%-2.5% Igepal and 0.1-1 U/uL RNAsin, pH 7.4) was directly added to either K562 or A673 cells in media and mixed by pipetting 3 times. The plates were then incubated at room temperature with shaking/rocking for 20-50 minutes to allow for lysis to take place. After this time, the cell lysate plate was transferred to ice to set up for the RT-qPCR reactions. The lysates could also be frozen at −80° C. for later use. To set up 10 uL RT-qPCR reactions, cell lysates were transferred to 384-well qPCR plates containing the master mix according to the table below. The plates were sealed, gently vortexed, and spun down before the run. The volumes were adjusted accordingly in some instances where the reaction was carried in 20 uL. The table below summarizes the components of the RT-qPCR reactions: The RT-qPCR reaction was performed using a QuantStudio (ThermoFisher) under the following fast cycling conditions. All samples and standards were analyzed at least in duplicate.

The subject of test [3] is SMN2 CJ mRNA. Description: Gene panel canonical junction qPCR assay, SMN2. The note with it: decrease in CJ mRNA levels, gene panel; read-out: SMN2 IC50. Here is the method:
as §1

The test system of test [4] is Target C CJ mRNA. Description: Gene panel canonical junction qPCR assay, Target C. The note with it: decrease in CJ mRNA levels, gene panel; read-out: Target C IC50. On the procedure:
as §1

Setting [5] is: decrease in CJ mRNA (50% response), read-out: HTT CJ AC50.
Setting [6] is: increase in AJ mRNA (50% response), read-out: HTT AJ AC50.

Structures are written as SMILES. Like-named read-outs stand apart in the source and are kept apart here.

A word on the AC50: it is the concentration at which the activity in the assay is half-maximal. The IC50 is the concentration at which inhibition is half-maximal. Regarding `Cc1cn2cc(-c3ccc4c(=O)n(C5CCNCC5)cnc4c3)ncc2n1` [Compound 297], the concentration at half-maximal activity (AC50) in test [1] (setting [5]) and in test [1] (setting [6]) was 1000 to 10000 nM each time. In addition, the IC50 was 1000 to 10000 nM in test [2], less than 100 nM in test [3] and 1000 to 10000 nM in test [4].

With `Cc1cn2cc(-c3ccc4c(c3)CCN(C3CCNCC3)C4=O)nc2c(C)n1` [Compound 221], the AC50 in test [1] (setting [5]) and in test [1] (setting [6]) was greater than 10000 nM in each case. Besides, the IC50 in test [2] is greater than 10000 nM; in test [3], 100 to 1000 nM; in test [4] it was greater than 10000 nM.

Take `Cc1cn2cc(-c3ccc4c(=O)n(C5CCN(C)CC5)cnc4c3)nc2c(C)n1` [Compound 302]: the half-maximal activity concentration (AC50) in test [1] (setting [5]) and in test [1] (setting [6]) was 1000 to 10000 nM each time. The IC50 in test [2] lay in the range of 1000 to 10000 nM; in test [3] it was 100 to 1000 nM; in test [4], 1000 to 10000 nM.

Regarding `Cc1cc(-c2ccc3nc(N4CCNCC4)[nH]c(=O)c3c2)cc2cn(C)nc12` [Compound 166, 6-(2,7-dimethyl-2H-indazol-5-yl)-2-(piperazin-1-yl)quinazolin-4(3H)-one], the AC50 in test [1] (setting [5]) and in test [1] (setting [6]) was 1000 to 10000 nM throughout. Further, the half-inhibitory concentration (IC50) in test [2], in test [3] and in test [4] was 1000 to 10000 nM throughout.

`Cc1cn2nc(-c3ccc4c(=O)n(C5CCN(C)CC5)cnc4c3)cc2c(C)n1` [Compound 303]: the AC50 in test [1] (setting [5]) and in test [1] (setting [6]) was 1000 to 10000 nM throughout. In addition, the figures for the half-inhibitory concentration (IC50) in test [2], in test [3] and in test [4] were 1000 to 10000 nM, 100 to 1000 nM and 1000 to 10000 nM, respectively.

As to `Cc1cn2nc(-c3cc(F)c4c(=O)n(C5CCNCC5)cnc4c3)cc(C)c2n1` [Compound 243, 7-(2,8-dimethylimidazo[1,2-b]pyridazin-6-yl)-5-fluoro-3-(piperidin-4-yl)quinazolin-4(3H)-one], the AC50 in test [1] (setting [5]) and in test [1] (setting [6]) was less than 100 nM each time. The IC50 in test [2], in test [3] and in test [4] was less than 100 nM in each case.

For the molecule `Cc1cn2nc(-c3ccc4c(=O)n(C5CCNCC5)cnc4c3)nc2c(C)n1` [Compound 287, 7-{6,8-dimethyl-[1,2,4]triazolo[1,5-a]pyrazin-2-yl}-3-(piperidin-4-yl)quinazolin-4-one], the half-maximal activity concentration (AC50) in test [1] (setting [5]) and in test [1] (setting [6]) was 100 to 1000 nM throughout. In addition, the IC50 was 100 to 1000 nM in test [2], less than 100 nM in test [3] and 100 to 1000 nM in test [4].

For the molecule `Cc1cn2nc(-c3ccc4c(=O)n([C@@H]5CCN[C@H](C)C5)ncc4c3)cc(C)c2n1` [Compound 272], the AC50 in test [1] (setting [5]) is less than 100 nM; in test [1] (setting [6]) it was 100 to 1000 nM. The values for the half-maximal inhibitory concentration (IC50) in test [2], in test [3] and in test [4] were less than 100 nM, less than 100 nM and 100 to 1000 nM, respectively.

For the molecule `Cc1cn2cc(-c3ccc4c(=O)n(C5CCN(C)CC5)cnc4c3F)cc(F)c2n1` [Compound 227, 8-fluoro-7-(8-fluoro-2-methylimidazo[1,2-a]pyridin-6-yl)-3-(1-methylpiperidin-4-yl)quinazolin-4(3H)-one], the AC50 in test [1] (setting [5]) and in test [1] (setting [6]) was 1000 to 10000 nM each time. For the same molecule, the concentration for half-maximal inhibition (IC50) is 1000 to 10000 nM in test [2], 100 to 1000 nM in test [3] and greater than 10000 nM in test [4].

Turning to `O=c1c2ccc(-c3cn[nH]c3)cc2cnn1C1CCNCC1` [Compound 261], the AC50 in test [1] (setting [5]) and in test [1] (setting [6]) was greater than 10000 nM each time. Also, the figures for the IC50 in test [2], in test [3] and in test [4] were greater than 10000 nM, 1000 to 10000 nM and greater than 10000 nM, respectively.

With `Cc1cn2nc(-c3ccc4c(=O)n(C5CCOCC5)ncc4c3)cc(C)c2n1` [Compound 275], the IC50 in test [2] and in test [4] was greater than 10000 nM each time.

Take `CC[C@@H]1C[C@@H](n2ncc3cc(-c4cc(C)c5nc(C)cn5n4)ccc3c2=O)CCN1` [Compound 305, 6-{2,8-dimethylimidazo[1,2-b]pyridazin-6-yl}-2-[(2R,4S)-2-ethylpiperidin-4-yl]phthalazin-1-one]: the AC50 was in the range of 100 to 1000 nM in test [1] (setting [5]) and 1000 to 10000 nM in test [1] (setting [6]). Also, the half-maximal inhibitory concentration (IC50) in test [2] and in test [4] was 100 to 1000 nM throughout.

For the molecule `Cc1cn2nc(-c3ccc4c(=O)n([C@H]5CCN[C@H](C)C5)ncc4c3)cc(C)c2n1` [Compound 273], the AC50 in test [1] (setting [5]) is less than 100 nM; in test [1] (setting [6]), 100 to 1000 nM. Further, the results for the IC50 in test [2] and in test [4] were less than 100 nM and 100 to 1000 nM, respectively.

The values above are taken from patent US20230159496A1, “COMPOUNDS AND METHODS FOR MODULATING SPLICING” (REMIX THERAPEUTICS INC., priority 2020, published 2023).
